Results: ChEMBL document CHEMBL5325393, “A mini-review on synthesis and antiviral activity of natural product oxetanocin A derivatives” (Bioorg Med Chem, 2022)
≈ marks a conversion by molar mass, not a printed value.

Experiments:
Human betaherpesvirus 5 [1] = test: Antiviral activity against HCMV AD169 infected in HELF cells by plaque reduction assay; assay type: functional, organism-based; conditions: Human betaherpesvirus 5, AD169, HELF
[2] = tested on: Human immunodeficiency virus 1; test: Antiviral activity against HIV-1 HTLV-IIIB infected in human MT4 cells assessed as inhibition of viral replication incubated for 4 days by immunofluorescence assay; assay type: functional, organism-based; conditions: Human immunodeficiency virus 1, HTLV-IIIB, MT4, 96 h
HUVEC [3] = test: Angiogenic activity against HUVEC cells assessed as relative area of tube formation at 100 uM incubated for 10 days by tube formation assay; assay type: functional, Homo sapiens; conditions: time 10 day
Human alphaherpesvirus 2 [4] = test: Antiviral activity against HSV-2 assessed as inhibition of viral growth; assay type: functional, organism-based
[5] = tested on: Human immunodeficiency virus 1; test: Antiviral activity against HIV-1 assessed as inhibition of viral replication; assay type: functional, organism-based
Human alphaherpesvirus 1 [6] = test: Antiviral activity against HSV-1 assessed as inhibition of viral growth; assay type: functional, organism-based
[7] = tested on: Human immunodeficiency virus 1; test: Antiviral activity against HIV-1 III B infected in PBMC assessed as inhibition of viral growth; assay type: functional, organism-based; conditions: Human immunodeficiency virus 1, III B
[8] = tested on: Human immunodeficiency virus 2; test: Antiviral activity against HIV-2 D194 infected in PBMC assessed as inhibition of viral growth; assay type: functional, organism-based; conditions: Human immunodeficiency virus 2, D194, PBMC
Human alphaherpesvirus 2 [9] = test: Antiviral activity against HSV-2 186 infected in African green monkey Vero cells assessed as reduction in virus induced cytopathogenicity by plaque reduction assay; assay type: functional, organism-based; conditions: Human alphaherpesvirus 2, 186, Vero
Hepatitis B virus = test: Antiviral activity against HBV infected in human HepG2.2.15 cells assessed as reduction in virus induced cytopathogenicity by Southern blot analysis; assay type: functional, organism-based
CEM = test: Inhibition of HIV reverse transcriptase in human CEM cells at 400 uM relative to control; assay type: cell-based; conditions: Human immunodeficiency virus
[10] = tested on: Human immunodeficiency virus 1; test: Antiviral activity against HIV-1 infected in human CEM cells assessed as inhibition of cytopathogenicity at 400 uM relative to control; assay type: functional; conditions: Human immunodeficiency virus 1, CCRF-CEM
Human alphaherpesvirus 1 [11] = test: Potency index, ratio of acyclovir EC50 to test compound EC50 for antiviral activity against HSV-1 KOS infected in African green monkey Vero cells assessed as reduction in virus induced cytopathogenicity by plaque reduction assay; assay type: functional
[12] = tested on: Human immunodeficiency virus 1; test: Antiviral activity against HIV-1 HTLV-IIIB infected in human MT4 cells assessed as reduction in virus induced cytopathogenicity by immunofluorescence assay; assay type: functional, organism-based; conditions: Human immunodeficiency virus 1, HTLV-IIIB
Human alphaherpesvirus 1 [13] = test: Antiviral activity against HSV-1 KOS infected in African green monkey Vero cells assessed as reduction in virus induced cytopathogenicity by plaque reduction assay; assay type: functional, organism-based; conditions: Human alphaherpesvirus 1, KOS
Human alphaherpesvirus 2 [14] = test: Potency index, ratio of acyclovir EC50 to test compound EC50 for antiviral activity against HSV-2 186 infected in African green monkey Vero cells assessed as reduction in virus induced cytopathogenicity by plaque reduction assay; assay type: functional
Human betaherpesvirus 5 [15] = test: Antiviral activity against HCMV AD169 infected in HEL cells assessed as reduction in virus induced cytopathogenicity by plaque reduction assay; assay type: functional, organism-based; conditions: Human betaherpesvirus 5, AD169, HEL
Cytomegalovirus = test: Antiviral activity against CMV AD-169 infected in HEL cells assessed as reduction in virus plaque formation; assay type: functional, organism-based; conditions: Human betaherpesvirus 5, AD-169, HEL
Murid betaherpesvirus 1 = test: Antiviral activity against MCMV Smith infected in MEF cells assessed as reduction in plaque formation by plaque reduction assay; assay type: functional; conditions: Murid betaherpesvirus 1, Smith, read-out: ED50 (the source's name)
[16] = tested on: Human immunodeficiency virus; test: Antiviral activity against HIV RF assessed as inhibition of viral growth; assay type: functional, organism-based; conditions: Human immunodeficiency virus 1, RF
Human alphaherpesvirus 3 [17] = test: Antiviral activity against thymidine kinase positive VZV V8602/5-1-1 infected in HFF cells assessed as reduction in viral replication incubated for 10 days by crystal violet staining based microplate reader analysis; assay type: functional, organism-based; conditions: Human alphaherpesvirus 3, V8602/5-1-1, HFF, 240 h
Human alphaherpesvirus 1 [18] = test: Antiviral activity against thymidine kinase positive HSV-1 E-377 infected in HFF cells assessed as reduction in viral replication incubated for 3 days by crystal violet staining based microplate reader analysis; assay type: functional, organism-based; conditions: Human alphaherpesvirus 1, E-377, HFF, 72 h
Human alphaherpesvirus 3 [19] = test: Antiviral activity against thymidine kinase positive VZV OKA infected in HFF cells assessed as reduction in viral replication incubated for 10 days by crystal violet staining based microplate reader analysis; assay type: functional, organism-based; conditions: Human alphaherpesvirus 3, OKA, 240 h
[20] = Antiproliferative against human HFF cells assessed as inhibition of cell growth by neutral red uptake analysis; assay type: toxicity, cell-based
Human alphaherpesvirus 1 [21] = test: Antiviral activity against thymidine kinase positive HSV-1 123 infected in HFF cells assessed as reduction in viral replication incubated for 3 days by crystal violet staining based microplate reader analysis; assay type: functional, organism-based; conditions: Human alphaherpesvirus 1, 123, HFF, 72 h
Human alphaherpesvirus 1 [22] = test: (§1) Antiviral activity against lethal systemic HSV-1 123 infected in po dosed Swiss mouse model assessed as increase in animal survival administered as single double strength loading dose at 7 hrs post-inoculation and single strength dose at 23, 31, 47, 55, 71, 79 hrs post-inoculation and monitored for 21 days; assay type: functional; conditions: time 21 day
Human alphaherpesvirus 1 [23] = test: Antiviral activity against thymidine kinase positive HSV-1 SC-16 infected in HFF cells assessed as reduction in viral replication incubated for 3 days by crystal violet staining based microplate reader analysis; assay type: functional, organism-based; conditions: Human alphaherpesvirus 1, SC-16, HFF, 72 h
Human alphaherpesvirus 3 [24] = test: Antiviral activity against thymidine kinase positive VZV V8907 infected in HFF cells assessed as reduction in viral replication incubated for 10 days by crystal violet staining based microplate reader analysis; assay type: functional, organism-based; conditions: Human alphaherpesvirus 3, V8907, HFF, 240 h
Human alphaherpesvirus 3 [25] = test: Antiviral activity against thymidine kinase positive VZV Ellen infected in HFF cells assessed as reduction in viral replication incubated for 10 days by crystal violet staining based microplate reader analysis; assay type: functional, organism-based; conditions: Human alphaherpesvirus 3, Ellen, 240 h
Human alphaherpesvirus 1 [26] = test: as §1, with “intracerebral” for “systemic”; assay type: functional; conditions: time 21 day
Human alphaherpesvirus 3 [27] = test: Antiviral activity against thymidine kinase positive VZV DKG infected in HFF cells assessed as reduction in viral replication incubated for 10 days by crystal violet staining based microplate reader analysis; assay type: functional, organism-based; conditions: Human alphaherpesvirus 3, DKG, 240 h
HUVEC [28] = test: Angiogenic activity against HUVEC cells assessed as relative area of tube formation at 100 uM incubated for 96 hrs by Alexa fluor 488 staining based analysis; assay type: functional, Homo sapiens
[29] = tested on: Human immunodeficiency virus 1; test: Antiviral activity against HIV-1 HTLV-IIIB infected in human MT4 cells assessed as inhibition of viral replication; assay type: functional, organism-based; conditions: Human immunodeficiency virus 1, HTLV-IIIB
[30] = tested on: Human immunodeficiency virus; test: Antiviral activity against HIV infected in human MT4 cells by plaque reduction assay; assay type: functional, organism-based; conditions: Human immunodeficiency virus 1, MT4

O=c1[nH]c(=O)c2ncn([C@@H]3O[C@H](CO)[C@H]3CO)c2[nH]1
IC50 (Human betaherpesvirus 5 [1]): > 50000 nM | EC50 [2]: > 100000 nM

Nc1nc(Cl)nc2c1ncn2[C@H]1C[C@H](CO)C1
Ratio (HUVEC [3]): 3.32

Nc1ncnc2c1ncn2N1C[C@H](CO)[C@H]1CO
EC50 (Human alphaherpesvirus 2 [4]): 34.9 µg/mL (≈ 139 µM) | EC50 [5]: 0.37 µg/mL (≈ 1.48 µM) | EC50 (Human alphaherpesvirus 1 [6]): 33.2 µg/mL (≈ 133 µM)

O=c1[nH]cnc2c1ncn2[C@H]1C[C@@](F)(CO)C1
IC50 [7]: 95000 nM | IC50 [8]: 46000 nM

Nc1nc(Cl)nc2c1ncn2[C@@H]1C[C@@H](CO)[C@H]1CO
Ratio (HUVEC [3]): 3.43

Nc1ccn([C@@H]2CS[C@H](CO)O2)c(=O)n1 [LAMIVUDINE]
EC50 (Human alphaherpesvirus 2 [9]): 0.39 µg/mL (≈ 1.7 µM) | EC50 (Hepatitis B virus): 0.009 µg/mL (≈ 0.0393 µM)

Nc1nc2c(ncn2[C@H]2C[C@@](O)(CO)C2)c(=O)[nH]1
inhibition (CEM): < 50% | inhibition at 400 µM [10]: 59%

Nc1ncnc2c1ncn2[C@@H]1C[C@](F)(CO)[C@H]1CO
EC50 (Human alphaherpesvirus 2 [9]): 1.33 µg/mL (≈ 4.98 µM) | Ratio EC50 (Human alphaherpesvirus 1 [11]): 7 | EC50 [12]: 3.73 µg/mL (≈ 14 µM) | EC50 (Human alphaherpesvirus 1 [13]): 2.72 µg/mL (≈ 10.2 µM) | Ratio EC50 (Human alphaherpesvirus 2 [14]): 7 | EC50 (Hepatitis B virus): 0.41 µg/mL (≈ 1.53 µM) | EC50 (Human betaherpesvirus 5 [15]): 0.18 µg/mL (≈ 0.673 µM)

C=C1C[C@@H](n2cnc3c(=O)[nH]c(N)nc32)[C@@H]1CO
EC50 (Cytomegalovirus): 70 µg/mL (≈ 283 µM)

Nc1nc2c(ncn2COC(CO)CO)c(=O)[nH]1 [GANCICLOVIR]
EC50 (Murid betaherpesvirus 1): 1 µg/mL (≈ 3.92 µM) | EC50 (Human betaherpesvirus 5 [15]): 0.71 µg/mL (≈ 2.78 µM)

Nc1nc(N)c2ncn([C@@H]3O[C@H](CO)[C@H]3CO)c2n1
IC50 (Human betaherpesvirus 5 [1]): 1000 nM | EC50 [2]: 2200 nM

[N-]=[N+]=N[C@H]1[C@H](n2cnc3c(N)ncnc32)O[C@@H]1CO
IC50 [16]: 6 µg/mL (≈ 22.9 µM)

Cc1cn([C@@H]2O[C@H](CO)[C@H]2CO)c(=O)[nH]c1=O
EC50 (Human alphaherpesvirus 3 [17]): 10 nM | EC50 (Human alphaherpesvirus 1 [18]): 12 nM | EC50 (Human alphaherpesvirus 3 [19]): 10 nM | IC50 [20]: > 100000 nM | EC50 (Human alphaherpesvirus 1 [21]): 12 nM | ED50 (Human alphaherpesvirus 1 [22]): 142 mg/kg.day | EC50 (Human alphaherpesvirus 1 [23]): 12 nM | EC50 (Human alphaherpesvirus 3 [24]): 10 nM | EC50 (Human alphaherpesvirus 3 [25]): 10 nM | ED50 (Human alphaherpesvirus 1 [26]): 211 mg/kg.day | EC50 (Human alphaherpesvirus 3 [27]): 10 nM

Nc1nc(I)nc2c1ncn2[C@@H]1C[C@H](CO)[C@H]1CO
Ratio (HUVEC [28]): 2.01

Nc1nc(Cl)nc2c1ncn2[C@@H]1O[C@H](CO)[C@H]1CO
IC50 [29]: 440 nM

Nc1ncnc2c1ncn2[C@H]1C[C@@](F)(CO)C1
IC50 [7]: 3900 nM | IC50 [8]: 1500 nM

O=C(Nc1ncnc2c1ncn2[C@@H]1O[C@H](CO)[C@H]1O)c1ccccc1
IC50 [30]: 5.5 µg/mL (≈ 16.1 µM)

O=c1[nH]cnc2c1ncn2[C@H]1CC[C@@H](CO)O1 [DIDANOSINE]
EC50 [5]: 0.46 µg/mL (≈ 1.95 µM) | EC50 [12]: 0.46 µg/mL (≈ 1.95 µM)
